The structures appear in SMILES notation.

Among the data in US11319299B2, “Substituted carboxamides as inhibitors of WDR5 protein-protein binding” (PROPELLON THERAPEUTICS INC., priority 2016, dated 2022) are Kd values, retold here.

In the assay the target is WDR5 (Homo sapiens (Human), UniProt P61964). The assay is described as follows: Surface Plasmon Resonance (SPR) assay, KD and residence time. The class given is binding. Particulars: surface plasmon resonance (SPR) assay; read-out: WDR5 binding affinity (KD). Background: SPR reads the build-up and loss of mass on a sensor chip optically.

By Kd is commonly meant the concentration at which binding is half-saturated. Take `C[C@@H]1CN(c2cc(F)c(-c3cnc(N4CCOCC4)nc3)cc2NC(=O)c2cc(C(F)(F)F)[nH]n2)C[C@H](C)N1C` [Example 321, N-[4-fluoro-5-(2-morpholin-4-ylpyrimidin-5-yl)-2-[(3R,5S)-3,4,5-trimethylpiperazin-1-yl]phenyl]-5-(trifluoromethyl)-1H-pyrazole-3-carboxamide]: the Kd stood at 63.1 nM.
As for `C[C@@H]1CN(c2cc(F)c(C3=CCCN(C(=O)OC(C)(C)C)C3)cc2NC(=O)c2c[nH]c(=O)cc2C(F)(F)F)C[C@H](C)N1C` [Example 322, tert-butyl 5-[2-fluoro-5-[[6-oxo-4-(trifluoromethyl)-1H-pyridine-3-carbonyl]amino]-4-[(3R,5S)-3,4,5-trimethylpiperazin-1-yl]phenyl]-3,6-dihydro-2H-pyridine-1-carboxylate], the equilibrium dissociation constant (Kd) came out at 1.36 nM.
The result for `C[C@@H]1CN(c2cc(F)c(C3=CCN(C(=O)OC(C)(C)C)C3)cc2NC(=O)c2c[nH]c(=O)cc2C(F)(F)F)C[C@H](C)N1C` [Example 323, tert-butyl 3-[2-fluoro-5-[[6-oxo-4-(trifluoromethyl)-1H-pyridine-3-carbonyl]amino]-4-[(3R,5S)-3,4,5-trimethylpiperazin-1-yl]phenyl]-2,5-dihydropyrrole-1-carboxylate] reads 2.48 nM.
Take `C[C@@H]1CN(c2cc(F)c(C3=CCCN(C(=O)OC(C)(C)C)C3)cc2NC(=O)c2cn(C)c(=O)cc2C(F)(F)F)C[C@H](C)N1C` [Example 325, tert-butyl 5-[2-fluoro-5-[[-methyl-6-oxo-4-(trifluoromethyl)pyridine-3-carbonyl]amino]-4-[(3R,5S)-3,4,5-trimethylpiperazin-1-yl]phenyl]-3,6-dihydro-2H-pyridine-1-carboxylate]: the Kd stood at 7.3 nM.
The result for `C[C@@H]1CN(c2cc(F)c(C3=CCN(C(=O)OC(C)(C)C)C3)cc2NC(=O)c2cn(C)c(=O)cc2C(F)(F)F)C[C@H](C)N1C` [Example 326, tert-butyl 3-[2-fluoro-5-[[-methyl-6-oxo-4-(trifluoromethyl)pyridine-3-carbonyl]amino]-4-[(3R,5S)-3,4,5-trimethylpiperazin-1-yl]phenyl]-2,5-dihydropyrrole-1-carboxylate] reads 3.05 nM; that for `C[C@@H]1CN(c2cc(F)c(C3=CCNC3)cc2NC(=O)c2c[nH]c(=O)cc2C(F)(F)F)C[C@H](C)N1C` [Example 329, N-[5-(2,5-dihydro-1H-pyrrol-3-yl)-4-fluoro-2-[(3R,5S)-3,4,5-trimethylpiperazin-1-yl]phenyl]-6-oxo-4-(trifluoromethyl)-1H-pyridine-3-carboxamide], 4.05 nM; that for `C[C@@H]1CN(c2cc(F)c(C3=CC4CCC(C3)N4)cc2NC(=O)c2c[nH]c(=O)cc2C(F)(F)F)C[C@H](C)N1C` (stereo partly drawn) [Example 330, N-[5-(8-azabicyclo[3.2.1]oct-2-en-3-yl)-4-fluoro-2-[(3R,5S)-3,4,5-trimethylpiperazin-1-yl]phenyl]-6-oxo-4-(trifluoromethyl)-1H-pyridine-3-carboxamide], 5.74 nM.
With `C[C@@H]1CN(c2cc(F)c(C3=CCN(c4ncccn4)C3)cc2NC(=O)c2c[nH]c(=O)cc2C(F)(F)F)C[C@H](C)N1C` [Example 335, N-[4-fluoro-5-(1-pyrimidin-2-yl-2,5-dihydropyrrol-3-yl)-2-[(3R,5S)-3,4,5-trimethylpiperazin-1-yl]phenyl]-6-oxo-4-(trifluoromethyl)-1H-pyridine-3-carboxamide], the equilibrium dissociation constant (Kd) worked out at 2.56 nM.
Regarding `C[C@@H]1CN(c2cc(F)c(C3=CC4CCC(C3)N4c3ncccn3)cc2NC(=O)c2c[nH]c(=O)cc2C(F)(F)F)C[C@H](C)N1C` (stereo partly drawn) [Example 336, N-[4-fluoro-5-(8-pyrimidin-2-yl-8-azabicyclo[3.2.1]oct-2-en-3-yl)-2-[(3R,5S)-3,4,5-trimethylpiperazin-1-yl]phenyl]-6-oxo-4-(trifluoromethyl)-1H-pyridine-3-carboxamide], the Kd worked out at 12.5 nM.
The result for `C[C@@H]1CN(c2cc(F)c(C3CN=C(N4CCOCC4)NC3)cc2NC(=O)c2c[nH]c(=O)cc2C(F)(F)F)C[C@H](C)N1C` (stereo partly drawn) [Example 339, N-[4-fluoro-5-(2-morpholin-4-yl-1,4,5,6-tetrahydropyrimidin-5-yl)-2-[(3R,5S)-3,4,5-trimethylpiperazin-1-yl]phenyl]-6-oxo-4-(trifluoromethyl)-1H-pyridine-3-carboxamide] reads 275 nM; that for `C[C@@H]1CN(c2ncc(-c3cc(NC(=O)c4c[nH]c(=O)cc4C(F)(F)F)c(N4CCN(C)[C@@H](C)C4)cc3F)cn2)CCO1` [Example 340, N-[4-fluoro-2-[(3S)-3,4-dimethylpiperazin-1-yl]-5-[2-[(2R)-2-methylmorpholin-4-yl]pyrimidin-5-yl]phenyl]-6-oxo-4-(trifluoromethyl)-1H-pyridine-3-carboxamide], 0.551 nM; that for `C[C@@H]1CN(c2cc(F)c(-c3cnc(N4CCOCC4)nc3)cc2NC(=O)c2cn(C)c(=O)cc2C(F)F)C[C@H](C)N1C` [Example 342, 4-(difluoromethyl)-N-[4-fluoro-5-(2-morpholin-4-ylpyrimidin-5-yl)-2-[(3R,5S)-3,4,5-trimethylpiperazin-1-yl]phenyl]-1-methyl-6-oxopyridine-3-carboxamide], 6.87 nM.
As for `CCN(C)[C@@H]1CN(c2cc(F)c(-c3cnc(N4CCOCC4)nc3)cc2NC(=O)c2c[nH]c(=O)cc2C(F)(F)F)C[C@H]1F` [Example 344, N-[4-fluoro-5-(2-morpholin-4-ylpyrimidin-5-yl)-2-[(3R,4R)-3-[ethyl(methyl)amino]-4-fluoropyrrolidin-1-yl]phenyl]-6-oxo-4-(trifluoromethyl)-1H-pyridine-3-carboxamide], the figure is 12.4 nM; as for `CCN(C)[C@@H]1CCN(c2cc(F)c(-c3cnc(N4CCOCC4)nc3)cc2NC(=O)c2c[nH]c(=O)cc2C(F)(F)F)C1` [Example 345, N-[4-fluoro-5-(2-morpholin-4-ylpyrimidin-5-yl)-2-[(3R)-3-[ethyl(methyl)amino]pyrrolidin-1-yl]phenyl]-6-oxo-4-(trifluoromethyl)-1H-pyridine-3-carboxamide], 1.2 nM.
As for `C[C@@H]1CN(c2cc(F)c(-c3cnc(N4CCOC(C)(C)C4)nc3)cc2NC(=O)c2c[nH]c(=O)cc2C(F)(F)F)C[C@H](C)N1C` [Example 350, N-[5-[2-(2,2-dimethylmorpholin-4-yl)pyrimidin-5-yl]-4-fluoro-2-[(3R,5S)-3,4,5-trimethylpiperazin-1-yl]phenyl]-6-oxo-4-(trifluoromethyl)-1H-pyridine-3-carboxamide], the equilibrium dissociation constant (Kd) stood at 1.42 nM.
`C[C@@H]1CN(c2cc(F)c(-c3cnc(N4C5CCC4CC5)nc3)cc2NC(=O)c2c[nH]c(=O)cc2C(F)(F)F)C[C@H](C)N1C` [Example 352, N-[5-[2-(7-azabicyclo[2.2.1]heptan-7-yl)pyrimidin-5-yl]-4-fluoro-2-[(3R,5S)-3,4,5-trimethylpiperazin-1-yl]phenyl]-6-oxo-4-(trifluoromethyl)-1H-pyridine-3-carboxamide]: the Kd turned out to be 2.73 nM.
`C[C@@H]1CN(c2cc(F)c(-c3cnc(N4CCOCC4)nc3)cc2NC(=O)c2ccc(F)cc2C(F)(F)F)C[C@H](C)N1` [Example 364, 4-fluoro-N-[4-fluoro-5-(2-morpholin-4-ylpyrimidin-5-yl)-2-[(3R,5S)-3,5-dimethylpiperazin-1-yl]phenyl]-2-(trifluoromethyl)benzamide]: the dissociation constant (Kd) was 5.87 nM.
